Experimental data reported in patent US9351947B2, “Use of catecholamines and related compounds as anti-angiogenic agents” (National Research Council of Canada, priority 2007, dated 2016).
Entries after “also recorded” stand apart in the source; their conditions may differ. Where two headings read alike, the source gives them in different places.

Tests used:
HUVECs [1] = test: Matrigel endothelial cell capillary-tube formation assay; format: cell-based, human; conditions: 22 h; for Activity (anti-angiogenicity): measured at 20 μM, HUVECs on Matrigel
Experimental: HUVECs were purchased from Cedarlane Laboratories (Burlington, Canada) and maintained in Endothelial Cell Basal Medium-2 (EBM-2) supplemented with EGM-2 growth factor mixture (Clonetics) and 2% Foetal bovine serum. The cells were cultured at 37° C. under a humidified 95%/5% (v/v) mixture of air and CO2.
Matrigel endothelial cell tube formation assays were performed using BD Matrigel™ (Becton, Dickinson). BD Matrigel™ was thawed at 4° C., and 150 μL were quickly added to each well of a 48-well plate and allowed to solidify for 60 min at 37° C. HUVECs (7×10^4 cells/mL) In EC basal medium-2 (EBM-2) were seeded 250 μL per well onto the surface of the solid BD Matrigel™ in the presence of the compounds to be tested. The cells were incubated for 22 h at […] in a 5% CO2 incubator. Tube formation was monitored by using a Leitz Labovert (Leitz, Wetzlar, Germany) inverted microscope. Two randomly selected two microscopic fields were photographed with a digital camera (Nikon, COOLPICKS 995). The total length of tube structures in each photograph was measured using ImageJ™ free software (http://rsb.info.nih.gov/ij/) and was normalized to that of control with no test compound. Each reported value represents the average of total six photographs from three independent experiments.

HUVECs [2] = test: Invasion of HUVECs through Matrigel-coated filter (Matrigel Invasion Chambers); format: cell-based, human; conditions: measured at 20 μM; HUVECs
Experimental: HUVECs were purchased from Cedarlane Laboratories (Burlington, Canada) and maintained in Endothelial Cell Basal Medium-2 (EBM-2) supplemented with EGM-2 growth factor mixture (Clonetics) and 2% Foetal bovine serum. The cells were cultured at 37° C. under a humidified 95%/5% (v/v) mixture of air and CO2. Invasion of endothelial cells was measured using BD BioCoatTM Growth Factor Reduced MatrigelTM Invasion Chambers (Beckton-Dickinson; […]). EBM-2 medium (500 μL each) was placed into the lower wells. HUVECs (2.5×10^4) in EBM-2 serum-free medium (500 μL) were seeded into each of the upper wells and incubated in the presence of a test compound. HUVECs were allowed to migrate for 36 h at 37° C. in an atmosphere of 95% air/5% CO2. HUVECs that remained on the upper surface of the filter were removed using a cotton swab. HUVECs that had migrated to the lower surface of the filters were fixed with methanol, stained with 0.1% crystal violet/20% (v/v) methanol and examined using a Leitz Labovert (Leitz, Wetzlar, Germany) inverted microscope after mounting on a slide. Three randomly selected microscopic fields were digitally captured using a Nikon […] 995 digital camera and the number of HUVECs in each photograph were directly counted. Each reported value represents the average and standard deviation of a total […] from two independent experiments.

angiogenesis = conditions: cited from earlier work; for Activity (angiogenic / anti-angiogenic): Ref. Thaker et al., 2006 (a), Ref. Basu et al., 2001 (b)
[3] = in vivo; cited from earlier work
[4] = 2.47% instilled to normal human eyes; cited from earlier work
retinal capillaries = test: Glycation of retinal capillaries in diabetic rats (anti-glycated BSA / anti-lectin staining); format: in vivo, Sprague-Dawley rats
Experimental: Animal weights were monitored every week.
The effects of (S)-isoproterenol on diabetic retinopathy were studied by staining retinal capillaries with antibodies against lectin. The capillary density at the retinal center, corresponding to the macular of the human eye, was analyzed.
Diabetes induces glycation in retina. Since (S)-isoproterenol is a potent anti-glycation agent, penetration of (S)-isoproterenol reduces glycation in diabetic retinal capillaries. Thus, the retinas, which were stained with antibodies against lectin, were also stained with antibodies against glycated bovine serum albumin, and the degree of glycation of retinal capillaries was analyzed.

[5] = Optical stability (racemization) in eye drop formulations, 10 days at 55° C., chiral HPLC; format: physicochemical; conditions: for % optical purity: 3.0 mg/mL, pH 6.0, starting material 99.87%
Experimental: The optical isomers of (S)-isoproterenol bitartrate and (S)-isoproterenol dipivalate hydrochloride were separated by HPLC using Shiseido chiral CD-Ph column (250×4.6 mm; 5 μm; isocratic 60:40 of 0.5 M sodium perchlorate/water and acetonitrile; flow rate, 1.0 mL/min). The elution profile was monitored by the absorption at 223 nm for isoproterenol bitartrate and 264 nm for isoproterenol dipivalate hydrochloride. The optical impurities were quantitated by the absorbance at 223 nm for isoproterenol bitartrate and 264 nm for isoproterenol dipivalate hydrochloride and by using a curve fitting software TABLECurve2D (Systat). The impurities of (R)-isoproterenol bitartrate and (R)-isoproterenol dipivalate hydrochloride were estimated as […], respectively. Thus, the racemization induced during synthesis and purification was minimal, if it occurred.
Table 2 describes the optical purities of (S)-isoproterenol and (S)-isoproterenol dipivalate after incubation in various eye drop formulations for 10 days at 55° C. and compared with those before incubation. The incubation for 10 days at 55° C. corresponds to the incubation for 167 days at 22° C.

[6] = Storage stability of the eye drop at 4° C. (HPLC profiles); format: physicochemical; conditions: 0.10% (w/v) eye drop, pH 5.5, one month of storage at 4° C.
[7] = acute intravenous, mice; cited from earlier work

CNCC(O)c1ccc(O)c(O)c1 (racemic) [(R,S)-Adrenaline]
Activity (anti-angiogenicity) (HUVECs [1]): no anti-angiogenic activity
Activity (anti-invasion) (HUVECs [2]): Non-antiinvasive
Activity (angiogenic / anti-angiogenic) (angiogenesis): Angiogenic

CCC(NC(C)C)C(O)c1ccc(O)c(O)c1 (racemic) [Isoetharine, 1-(3,4-dihydroxyphenyl)-2-(Isopropylamino)-1(R,S)-butanol]
Activity (anti-angiogenicity) (HUVECs [1]): Anti-angiogenic
Activity (anti-angiogenicity) (HUVECs [1]; listed as isoetharine): anti-angiogenic activity

NC[C@H](O)c1ccc(O)c(O)c1 [(R)-Noradrenaline]
Activity (angiogenic / anti-angiogenic) (angiogenesis): Angiogenic^a

CC(C)(C)NCC(O)c1ccc(O)c(O)c1 (racemic) [(R,S)-N-tert-butylnoradrenaline]
Activity (anti-angiogenicity) (HUVECs [1]): Anti-angiogenic
Activity (anti-angiogenicity) (HUVECs [1]; listed as (R,S)—N-tert-butylnoradrenaline): anti-angiogenic activity

CCCCNC[C@@H](O)c1ccc(O)c(O)c1 [(S)-N-n-butylnoradrenaline]
Activity (anti-angiogenicity) (HUVECs [1]): Anti-angiogenic
Activity (anti-angiogenicity) (HUVECs [1]; listed as (S)—N-butylnoradrenaline): anti-angiogenic activity

NCCc1ccc(O)c(O)c1 [Dopamine]
potency (inhibition of capillary tube formation) (HUVECs [1]; angiogenic assay condition used in FIG. 1, 1-50 μM): comparable potency
concentration showing effective anti-angiogenic activity (angiogenesis; Basu et al., 2001): 1 µM
Activity (angiogenic / anti-angiogenic) (angiogenesis): Anti-angiogenic^b

CNCC(O)c1ccc(OC(=O)C(C)(C)C)c(OC(=O)C(C)(C)C)c1 (centres unmarked) [Dipivefrin]
enhancement of ocular absorption versus adrenaline [3]: 17 time

NC[C@@H](O)c1ccc(O)c(O)c1 [(S)-Noradrenaline, reference compound]
Activity (anti-angiogenicity) (HUVECs [1]): Non-antiangiogenic
Activity (anti-angiogenicity) (HUVECs [1]; listed as (S)-noradrenaline): not anti-angiogenic

CCNC[C@@H](O)c1ccc(O)c(O)c1 [(S)-N-ethylnoradrenaline]
Activity (anti-angiogenicity) (HUVECs [1]): Anti-angiogenic
Activity (anti-angiogenicity) (HUVECs [1]; listed as (S)—N-ethylnoradrenaline): anti-angiogenic activity

CC(C)NCC(O)c1ccc(O)c(O)c1 (racemic) [(R,S)-isoproterenol, reference compound]
Activity (anti-angiogenicity) (HUVECs [1]): did not show anti-angiogenic activity; also recorded: no anti-angiogenic activity; also recorded: Non-antiangiogenic
duration of reduction in ocular tension [4]: at least 12 h
reduction in ocular tension [4]: 20%

CC(C)NC[C@@H](O)c1ccc(OC(=O)C(C)(C)C)c(OC(=O)C(C)(C)C)c1 [(S)-isoproterenol dipivalate]
effect on glycation in retinal capillaries (retinal capillaries; 0.1% eye drop): significantly reduced the glycation in retinal capillaries
red fluorescence intensity of AGEs normalized by the retinal capillary density (retinal capillaries; 0.1% eye drop twice a day, P 0.068 vs diabetic rats with vehicle): 0.44±0.17
conversion to the (R)-isoform ([5]; 10 days at 55° C.): 0.02%
% optical purity ([5]; 10 days at 55° C., NaCl 8 mg/mL, Benzalkonium chloride 0.04 mg/mL, Tween 80 2.5 mg/mL): >99.90%
% optical purity ([5]; 10 days at 55° C., Povidone 2 mg/mL, Benzalkonium chloride 0.04 mg/mL, D-Mannitol 54.7 mg/mL): 99.90%
% optical purity ([5]; 10 days at 55° C., Povidone 2 mg/mL, D-Mannitol 54.7 mg/mL, Chlorobutanol 1 mg/mL, 2-hydroxypropyl cyclodextrin 10.1 mg/mL): 99.74%
% optical purity ([5]; 10 days at 55° C., Povidone 2 mg/mL, NaCl 8 mg/mL, Benzalkonium chloride 0.04 mg/mL, 2-hydroxypropyl cyclodextrin 10.1 mg/mL): 99.86%
average optical purity after incubating 10 days at 55° C. ([5]; average over the eye drop formulations): approximately 99.85±0.08%
optical purity after 2 years of storage at room temperature ([5]; extrapolated, from 99.87%): 99.78%
blood glucose level (Group II, non-diabetic rats receiving prodrug eye drop, 27 week period): 5.1 ± 0.4 mM
blood glucose level (Group IV, diabetic rats receiving prodrug eye drop, stabilized level): 27 ± 5 mM
degradation of the active ingredient in eye drop (HPLC profiles) [6]: No degradation

CO[C@@H](CNC(C)C)c1ccc(O)c(O)c1 [(R)-1-(N-isopropyl)-3-methoxydopamine]
Activity (anti-angiogenicity) (HUVECs [1]): Anti-angiogenic

CC(C)NC[C@H](O)c1ccc(O)c(O)c1 [(R)-isoproterenol]
Activity (anti-invasion) (HUVECs [2]): did not show any anti-invasion activity; also recorded: Non-antiinvasive
Activity (angiogenic / anti-angiogenic) (angiogenesis): Angiogenic
Activity (angiogenic / anti-angiogenic) (angiogenesis; listed as (R)-Isoproterenol): angiogenic
LD50 [7]: 57 ± 2 mg/kg

CCCNC[C@@H](O)c1ccc(O)c(O)c1 [(S)-N-n-propylnoradrenaline]
Activity (anti-angiogenicity) (HUVECs [1]): Anti-angiogenic
Activity (anti-angiogenicity) (HUVECs [1]; listed as (S)—N-propylnoradrenaline): anti-angiogenic activity

CO[C@H](CNC(C)C)c1ccc(O)c(O)c1 [(S)-1-(N-isopropyl)-3-methoxydopamine]
Activity (anti-angiogenicity) (HUVECs [1]): Anti-angiogenic
